According to patent US4283381A, “Triiodinated aminoacetamido isophthalamide x-ray contrast agents” (Schering Aktiengesellschaft, priority 1979, dated 1981):

How the values were obtained:
[1] = test system: Mouse (20 g); test: LD50 mouse, intravenous injection; format: in vivo; conditions: solution 300 mg iodine/ml, injection rate 2 ml/min
Description: (§1) LD50 on mice and rats was determined after intravenous injection of
(§2) the solutions containing 300 mg iodine/ml with an injection rate of 2

[2] = Viscosity of solution with 300 mg iodine/ml, 37° C.; format: physicochemical
[3] = Iodine content of salt; format: physicochemical
[4] = test system: Rat (100 g); test: LD50 rat, intravenous injection; format: in vivo; conditions: solution 300 mg iodine/ml, injection rate 2 ml/min
Description: as §1, §2

[5] = Molarity (and thus osmotic pressure) of solution with 300 mg iodine; format: physicochemical; conditions: 300 mg iodine/ml

Structure (SMILES)	LD50 Mouse (20 g) g iodine/kg [1] [g iodine/kg]	Viscosity of solution with 300 mg iodine/ml, 37° C. in centipoises [2] [centipoises]	Iodine content of salt [3] [%]	LD50 Rat (100 g) g iodine/kg [4] [g iodine/kg]	Molarity of solution with 300 mg iodine [5] [mol/L]
CNC(=O)c1c(I)c(NC(C)=O)c(I)c(C(=O)O)c1I [Na-Iothalamate]	8.0	2.7	60	7.0	0.787
NCC(=O)Nc1c(I)c(C(=O)NCCO)c(I)c(C(=O)NCCO)c1I [A-Iothalamate, 5-aminoacetamido-2,4,6-triiodoisophthalic acid bis(2-hydroxyethyl)amide iothalamate]	≥ 10.5	2.4	58	≥ 10	0.394
CC(=O)Nc1c(I)c(NC(C)=O)c(I)c(C(=O)O)c1I [Megl. Amidotrizoate]	–	5.0	47	7.5	0.787
CN(CC(O)CO)C(=O)c1c(I)c(NC(=O)CN)c(I)c(C(=O)N(C)CC(O)CO)c1I (centres unmarked) [B-Amidotrizoate, 5-amidoacetamido-2,4,6-isophthalic acid bis(N-methyl-2,3-dihydroxypropyl) diamide amidotrizoate]	–	3.5	54	≥ 10	0.394
CNC(=O)c1c(I)c(NC(C)=O)c(I)c(C(=O)O)c1I [Megl. Iothalamate]	4.5	5.2	47	7.4	0.787
